Data set [1] concerns IFNγ, IL-2 and IL-4 secreting splenocytes. Nature of the data set: Elispot of cytokine-secreting splenocytes (IFNγ, IL-2, IL-4). In kind it is in vivo, Balb/c mice. As to conditions: for spot forming units (SFU) secreting IFNγ / spot forming units (SFU) secreting IFNγ / cytokine secretion: i.n.; for spot forming units (SFU) secreting IFNγ / secretion of IFNγ, IL-2 and IL-4 (SFU) vs β-Gal alone: 10 μg glycolipid; for spot forming units (SFU) secreting IFNγ: MHC class I restricted β-Gal peptide 2 μg/ml, 24 h; for secretion of IFNγ, IL-2 and IL-4 (SFU) vs β-Gal alone / secretion of IFNγ, IL-2 and IL-4 (SFU) vs control animals: s.c. (parenteral); for spot forming units (SFU) secreting IFNγ / cytokine secretion / secretion of IFNγ, IL-2 and IL-4 (SFU) vs control animals: 20 up to 30 μg glycolipid. On the procedure: Co-administration of β-Gal with 10 μg glycolipids 1, 5 and 6 induced a strong cellular immune responses and enhanced levels of IFNγ, IL-2 and IL-4 in response to enhanced concentration of the β-Gal antigen in Balb/c mice. Balb/c mice were immunized by the i.n. or s.c. route with β-Gal alone or together with glycolipids 1, 5 and 6 three times at 2-wk intervals. 10 days after the final immunization, the immunized mice were sacrificed. Splenocytes of mice immunized by the i.n. (FIG. 12) and s.c. (FIG. 13) route were collected and cultured with different concentrations of the antigen. A total of 5×10^6 cells/ml spleen cells were cultured with 2 μg/ml of the MHC cI.I restricted β-Gal peptide (IFNγ) for 24 h and the β-Gal-Protein (IL-2 and 4) for 48 h. IFNγ producing CD8+ T cells were analyzed using BD Elispot kit according to the manufacturer's instructions. […] Bars represent Spot forming units of 10^6 splenocytes with subtracted background mean SFU±SE in each group. Each group consists of five mice. Data are representative of three separate experiments.
Co-administration of β-Gal with 20 up to 30 μg glycolipids 5 and 6 induced strong cellular immune responses and enhanced levels of IFNγ, IL-2 and IL-4 in response to enhanced concentration of the β-Gal antigen in Balb/c mice. Balb/c mice were immunized by the i.n. or s.c. route with β-Gal alone or together with glycolipids 5 and 6 three times at 2-wk intervals. 10 days after the final immunization, the immunized mice were sacrificed. Splenocytes of mice immunized by the i.n. (FIG. 14) and s.c. (FIG. 15) route were collected and cultured with different concentrations of. A total of 5×10^6 cells/ml spleen cells were cultured with 2 μg/ml of the MHC class I restricted β-Gal peptide (IFNγ) for 24 h and the β-Gal-Protein (IL-2 and 4) for 48 h. IFNγ producing CD8+ T cells were analyzed using BD Elispot kit according to the manufacturer's instructions. […] Bars represent Spot forming units of 10^6 splenocytes with subtracted background mean SFU±SEM in each group. Each group consists of five mice. Data are representative of three separate experiments.
Experimental protocol: Spleens from vaccinated mice were removed and pooled for analysis of cellular immune responses. The protocol for vaccination was identical to the protocol described in Example 2. Cells were grown in RPMI 1640 supplemented with 10% fetal calf serum, 100 U/ml of penicillin, 50 μg/ml of streptomycin, 5×10^−5 M 2-mercaptoethanol and 1 mM L-glutamine (GIBCO BRL, Karlsruhe, Germany) and maintained at 37° C. in a humidified 5% CO2 atmosphere. Lymph node and spleen cell suspensions were adjusted to 5×10^6 cells/ml in complete medium, cells were seeded with 100 μl per well in a flat-bottomed 96-well microtiter plate (Nunc) and plates were incubated for 4 days in the presence of different concentrations of soluble β-Gal.
Splenocytes of mice immunized by the i.n. (FIG. 12) and s.c. (FIG. 13) route were collected and cultured with different concentrations of the antigen. A total of 5×10^6 cells/ml spleen cells were cultured with 2 μg/ml of the MHC cI.I restricted β-Gal peptide (IFNγ) for 24 h and the β-Gal-Protein (IL-2 and 4) for 48 h. IFNγ producing CD8+ T cells were analyzed using BD Elispot kit according to the manufacturer's instructions. […] Bars represent Spot forming units of 10^6 splenocytes with subtracted background mean SFU±SE in each group. Each group consists of five mice. Data are representative of three separate experiments.

The nature of data set [2]: Tolerability of co-administered glycolipids: body weight and behaviour tested daily. In kind it is in vivo. On the procedure:
The body weight and the behaviour of the animals were tested daily. The Balb/c mice were immunized by the mucosal (i.n.) or parenteral (s.c.) route with β-Gal alone or together with glycolipids 1, 5 and 6 three times at 2-wk intervals (day 1, 14 and 28). 10 days after the final immunization (day 38), the immunized mice were sacrificed.
Experimental protocol: six-eight weeks-old female BALB/c (H-2d) mice were purchased from Harlan Winkelmann GmbH (Borchen, Germany) and treated in accordance with local and European Community guidelines. Groups of 5 mice each were immunized on day 01, 14 and 28 with 30 μg of β-Gal (Boehringer, Mannheim, Germany), alone or with 10 μg of glycolipids 1, 5, or 6, respectively, see FIG. 2. For intranasal (i.n.) immunization, 10 μl were applied to each naris, whereas for the s.c. injection β-Gal with or without glycolipids 1, 5 or 6, respectively, was resuspended in a volume of 50 μl PBS per animal. Serum samples were collected at day 38 after immunization and stored at −20° C. prior to determination of β-Gal-specific antibodies. 96-well Nunc-Immuno MaxiSorp assay plates (Nunc, Roskilde, Denmark) were coated with 100 μl of β-Gal (Boehringer, Mannheim, Germany) at 5 μg/ml in 0.05 M carbonate buffer (pH 8.2) per well. Serial two-fold dilutions of sera or lavages in PBS with 1% BSA and 0.05% Tween 20 were added (100 μl/well), and plates incubated for 16 h at 37° C. After washing, biotinylated γ-chain-specific goat anti-mouse IgG (Sigma Chemie, Deisenhofen, Germany) was added, and plates were incubated for an additional 1 h at 37° C. After four washes, 100 μl of peroxidase-conjugated streptavidin (Pharmingen) was added to cells and plates incubated at 37° C. for 30 min. After four washes, reactions were developed with ABTS in 0.1 M citrate-phosphate buffer (pH 4.35) containing 0.01% H2O2.

Where [3] appears, read: co-administered with 30 μg β-Gal, i.n. and s.c., day 1, 14 and 28.

Entries after “also recorded” stand apart in the source; their conditions may differ.

For the molecule `CCCCCCCC/C=C\CCCCCCCCOCC(COCCCCCCCC/C=C\CCCCCCCC)O[C@@H]1O[C@H](CO)[C@@H](O[C@H]2O[C@H](CO)[C@@H](O)[C@H](O)[C@H]2O)[C@H](O)[C@H]1O` (relative stereo) [glycolipid 1, 1,3-Di-O[cis-9-octadecenyl]-2-O-[4′-O-(α-D-glycopyranosyl)-β-D-glycopyranosyl]-sn-glycerol], in data set [1], the “spot forming units (SFU) secreting IFNγ” value was “only a weak secretion”; the “secretion of IFNγ, IL-2 and IL-4 (SFU) vs β-Gal alone” value (“secretion of IFNγ … vs β-Gal alone” below) was “only weak enhanced secretion”. Besides, the “toxic side effects (body weight and behaviour)” value (“toxic side effects” below) in data set [2] (mouse, in vivo, sc) is “no toxic side effects; also recorded: no toxic side effects or changes in their behaviour”.

With `CCCCCCCCCCCCCCOCC(COCCCCCCCCCCCCCC)O[C@@H]1O[C@H](CO)[C@@H](O[C@H]2O[C@H](CO)[C@@H](O)[C@H](O)[C@H]2O)[C@H](O)[C@H]1O` [glycolipid 5, 1,3-Di-O-tetradecyl-2-O-[4′-O-(α-D-glucopyranosyl)-β-D-glucopyranosyl]-sn-glycerol], in data set [1], the “spot forming units (SFU) secreting IFNγ” value was “enhanced expression”; the “spot forming units (SFU) secreting IFNγ / cytokine secretion” value is on record as “enhanced expression”; the “secretion of IFNγ … vs β-Gal alone” value is listed as “only weak enhanced secretion”; the “secretion of IFNγ, IL-2 and IL-4 (SFU) vs control animals” value is “only a minor effect”. In data set [2] (setting [3]), the “toxic side effects” value is “no toxic side effects; also recorded: no toxic side effects or changes in their behaviour”.

For `CCCCCCCCCCCCCCOCC(COCCCCCCCCCCCCCC)O[C@@H]1O[C@H](CO[C@H]2O[C@H](CO)[C@H](O)[C@H](O)[C@H]2O)[C@@H](O)[C@H](O)[C@H]1O` [glycolipid 6, 1,3-di-O-tetradecyl-2-O-[6′-O-(α-D-galactopyranosyl)-β-D-glucopyranosyl]-sn-glycerol], in data set [1], the “spot forming units (SFU) secreting IFNγ” value is given as “only a weak secretion”; the “spot forming units (SFU) secreting IFNγ / cytokine secretion” value was “reduced cytokine secretion”; the “secretion of IFNγ … vs β-Gal alone” value was “only weak enhanced secretion”; the “secretion of IFNγ, IL-2 and IL-4 (SFU) vs control animals” value is “only a minor effect”. Moreover, in data set [2] (setting [3]), the “toxic side effects” value is listed as “no toxic side effects; also recorded: no toxic side effects or changes in their behaviour”.
